Results as given in PubChem BioAssay AID1259407 (Chemical Carcinogenesis Research Information System (CCRIS), 2018).
The source made the active and inactive calls. The rule behind the calls is not given here.

System: CCRIS mutagenicity, Ames/micronucleus/aberration tests
Assay: CCRIS mutagenicity studies
[1] = Test System: AMES SALMONELLA TYPHIMURIUM, Strain/Indicator: TA97, Metabolic Activation: NONE, Method: PREINCUBATION
[2] = Test System: AMES SALMONELLA TYPHIMURIUM, Strain/Indicator: TA98, Metabolic Activation: HAMSTER, LIVER, S-9, AROCLOR 1254 (10%), Method: PREINCUBATION
[3] = Test System: AMES SALMONELLA TYPHIMURIUM, Strain/Indicator: TA98, Metabolic Activation: NONE, Method: PREINCUBATION
[4] = Test System: AMES SALMONELLA TYPHIMURIUM, Strain/Indicator: TA98, Metabolic Activation: RAT, LIVER, S-9, AROCLOR 1254 (10%), Method: PREINCUBATION
[5] = Test System: AMES SALMONELLA TYPHIMURIUM, Strain/Indicator: TA100, Metabolic Activation: HAMSTER, LIVER, S-9, AROCLOR 1254 (10%), Method: PREINCUBATION
[6] = Test System: AMES SALMONELLA TYPHIMURIUM, Strain/Indicator: TA100, Metabolic Activation: NONE, Method: PREINCUBATION
[7] = Test System: AMES SALMONELLA TYPHIMURIUM, Strain/Indicator: TA100, Metabolic Activation: RAT, LIVER, S-9, AROCLOR 1254 (10%), Method: PREINCUBATION
[8] = Test System: AMES SALMONELLA TYPHIMURIUM, Strain/Indicator: TA1535, Metabolic Activation: NONE, Method: PREINCUBATION
[9] = Test System: AMES SALMONELLA TYPHIMURIUM, Strain/Indicator: TA1537, Metabolic Activation: NONE, Method: PREINCUBATION

## O=C1NC(=O)c2cc([N+](=O)[O-])ccc21
Test System: AMES SALMONELLA TYPHIMURIUM, Strain/Indicator: TA97, Metabolic Activation: HAMSTER, LIVER, S-9, AROCLOR 1254 (10%), Method: PREINCUBATION
  mutagenic call: inactive; negative
[1]
  mutagenic call: active; positive
Test System: AMES SALMONELLA TYPHIMURIUM, Strain/Indicator: TA97, Metabolic Activation: RAT, LIVER, S-9, AROCLOR 1254 (10%), Method: PREINCUBATION
  mutagenic call: inactive; negative
[2]
  mutagenic call: active; positive
[3]
  mutagenic call: active; positive
[4]
  mutagenic call: active; positive
[5]
  mutagenic call: inactive; negative
[6]
  mutagenic call: inactive; negative
[7]
  mutagenic call: inactive; negative
Test System: AMES SALMONELLA TYPHIMURIUM, Strain/Indicator: TA1535, Metabolic Activation: HAMSTER, LIVER, S-9, AROCLOR 1254 (10%), Method: PREINCUBATION
  mutagenic call: inactive; negative
[8]
  mutagenic call: inactive; negative
Test System: AMES SALMONELLA TYPHIMURIUM, Strain/Indicator: TA1535, Metabolic Activation: RAT, LIVER, S-9, AROCLOR 1254 (10%), Method: PREINCUBATION
  mutagenic call: inactive; negative
Test System: AMES SALMONELLA TYPHIMURIUM, Strain/Indicator: TA1537, Metabolic Activation: HAMSTER, LIVER, S-9, AROCLOR 1254 (10%), Method: PREINCUBATION
  mutagenic call: active; positive
[9]
  mutagenic call: active; positive
Test System: AMES SALMONELLA TYPHIMURIUM, Strain/Indicator: TA1537, Metabolic Activation: RAT, LIVER, S-9, AROCLOR 1254 (10%), Method: PREINCUBATION
  mutagenic call: active; positive

## O=Cc1cc(=O)[nH]c(=O)[nH]1
Test System: CHINESE HAMSTER V-79, Strain/Indicator: V-79 (HPRT)/6-THIOGUANINE, Metabolic Activation: NONE, Method: STANDARD PLATE
  mutagenic call: active; positive

## Nc1ccc(Cl)cc1Cl
Test System: AMES SALMONELLA TYPHIMURIUM, Strain/Indicator: TA97, Metabolic Activation: HAMSTER, LIVER, S-9, AROCLOR 1254 (10 OR 30%), Method: PREINCUBATION
  mutagenic call: inactive; negative
[1]
  mutagenic call: inactive; negative
Test System: AMES SALMONELLA TYPHIMURIUM, Strain/Indicator: TA97, Metabolic Activation: RAT, LIVER, S-9, AROCLOR 1254 (10 OR 30%), Method: PREINCUBATION
  mutagenic call: inactive; negative
[2]
  mutagenic call: inactive; negative
Test System: AMES SALMONELLA TYPHIMURIUM, Strain/Indicator: TA98, Metabolic Activation: HAMSTER, LIVER, S-9, AROCLOR 1254 (30%), Method: PREINCUBATION
  mutagenic call: inactive; negative
[3]
  mutagenic call: inactive; negative
Test System: AMES SALMONELLA TYPHIMURIUM, Strain/Indicator: TA98, Metabolic Activation: RAT, LIVER, S-9, AROCLOR 1254 (5 OR 30%), Method: PREINCUBATION
  mutagenic call: inactive; negative
[4]
  mutagenic call: inactive; negative
Test System: AMES SALMONELLA TYPHIMURIUM, Strain/Indicator: TA100, Metabolic Activation: HAMSTER, LIVER, S-9, AROCLOR 1254 (5%), Method: PREINCUBATION
  mutagenic call: inactive; negative
[5]
  mutagenic call: inactive; negative
Test System: AMES SALMONELLA TYPHIMURIUM, Strain/Indicator: TA100, Metabolic Activation: HAMSTER, LIVER, S-9, AROCLOR 1254 (30%), Method: PREINCUBATION
  mutagenic call: inactive; negative
[6]
  mutagenic call: inactive; negative
[7]
  mutagenic call: inactive; negative
Test System: AMES SALMONELLA TYPHIMURIUM, Strain/Indicator: TA100, Metabolic Activation: RAT, LIVER, S-9, AROCLOR 1254 (30%), Method: PREINCUBATION
  mutagenic call: inactive; negative
Test System: AMES SALMONELLA TYPHIMURIUM, Strain/Indicator: TA1535, Metabolic Activation: HAMSTER, LIVER, S-9, AROCLOR 1254 (10 OR 30%), Method: PREINCUBATION
  mutagenic call: inactive; negative
[8]
  mutagenic call: inactive; negative
Test System: AMES SALMONELLA TYPHIMURIUM, Strain/Indicator: TA1535, Metabolic Activation: RAT, LIVER, S-9, AROCLOR 1254 (10 OR 30%), Method: PREINCUBATION
  mutagenic call: inactive; negative
Test System: AMES SALMONELLA TYPHIMURIUM, Strain/Indicator: TA1537, Metabolic Activation: HAMSTER, LIVER, S-9, AROCLOR 1254 (30%), Method: PREINCUBATION
  mutagenic call: inactive; negative
[9]
  mutagenic call: inactive; negative
Test System: AMES SALMONELLA TYPHIMURIUM, Strain/Indicator: TA1537, Metabolic Activation: RAT, LIVER, S-9, AROCLOR 1254 (30%), Method: PREINCUBATION
  mutagenic call: inactive; negative

## CC(=O)c1cc(NC(=O)NC(C)(C)C)ccc1OCC(O)CNC(C)(C)C (stereo not drawn)
[3]
  mutagenic call: inactive; negative
Test System: AMES SALMONELLA TYPHIMURIUM, Strain/Indicator: TA98, Metabolic Activation: RAT, LIVER, S-9, PHENOBARBITAL AND 5,6-BENZOFLAVONE (10 OR 50 µL/PLATE), Method: PREINCUBATION
  mutagenic call: inactive; negative
[6]
  mutagenic call: inactive; negative
Test System: AMES SALMONELLA TYPHIMURIUM, Strain/Indicator: TA100, Metabolic Activation: RAT, LIVER, S-9, PHENOBARBITAL AND 5,6-BENZOFLAVONE (10 OR 50 µL/PLATE), Method: PREINCUBATION
  mutagenic call: inactive; negative
[8]
  mutagenic call: inactive; negative
Test System: AMES SALMONELLA TYPHIMURIUM, Strain/Indicator: TA1535, Metabolic Activation: RAT, LIVER, S-9, PHENOBARBITAL AND 5,6-BENZOFLAVONE (10 OR 50 µL/PLATE), Method: PREINCUBATION
  mutagenic call: inactive; negative
[9]
  mutagenic call: inactive; negative
Test System: AMES SALMONELLA TYPHIMURIUM, Strain/Indicator: TA1537, Metabolic Activation: RAT, LIVER, S-9, PHENOBARBITAL AND 5,6-BENZOFLAVONE (10 OR 50 µL/PLATE), Method: PREINCUBATION
  mutagenic call: inactive; negative
Test System: E. COLI, Strain/Indicator: WP2 UVRA, Metabolic Activation: NONE, Method: PREINCUBATION
  mutagenic call: inactive; negative
Test System: E. COLI, Strain/Indicator: WP2 UVRA, Metabolic Activation: RAT, LIVER, S-9, PHENOBARBITAL AND 5,6-BENZOFLAVONE (10 OR 50 µL/PLATE), Method: PREINCUBATION
  mutagenic call: inactive; negative

## CCc1c2ccccc2cc2ccc3ccccc3c12
Test System: AMES SALMONELLA TYPHIMURIUM, Strain/Indicator: TA98, Method: STANDARD PLATE
  mutagenic call: inactive; negative
Test System: AMES SALMONELLA TYPHIMURIUM, Strain/Indicator: TA100, Metabolic Activation: RAT, LIVER, S-9, PHENOBARBITAL, Method: STANDARD PLATE
  mutagenic call: inactive; negative
Test System: AMES SALMONELLA TYPHIMURIUM, Strain/Indicator: TA100, Method: STANDARD PLATE
  mutagenic call: inactive; negative

## N#CCCC(=O)CCc1ccc(C(=O)O)cc1
[3]
  mutagenic call: active; positive
Test System: AMES SALMONELLA TYPHIMURIUM, Strain/Indicator: TA98, Metabolic Activation: RAT, LIVER, S-9, PCB, Method: PREINCUBATION
  mutagenic call: inactive; negative
[6]
  mutagenic call: inactive; negative
Test System: AMES SALMONELLA TYPHIMURIUM, Strain/Indicator: TA100, Metabolic Activation: RAT, LIVER, S-9, PCB, Method: PREINCUBATION
  mutagenic call: inactive; negative
